Structures can show the parent of a compound that is named as a salt.
| SMILES | melting point |
| --- | --- |
| CC1C(=O)Nc2ccc(Cl)cc2N1C1CC1 (racemic) [Example XVIII, (3RS)-6-Chloro-4-N-(cyclopropyl)-3-methyl-3,4-dihydroquinoxalin-2(1H)-one] | 167 °C |
| C[C@@H]1Nc2cc(Cl)ccc2NC1=O [Example IB, (3S)-6-Chloro-3-methyl-3,4-dihydroquinoxalin-2(1H)-one] | 122 to 123 °C |
| C=C(C)OC(=O)N1c2ccc(C)cc2NC(=O)C1(C)C [VIII, 4-N-(Isopropenyloxycarbonyl)-3,3,7-trimethyl-3,4-di-hydroquinoxalin-2(1H)-one] | 185 °C |
| COCCOC(=O)N1c2cc(Cl)ccc2NC(=O)[C@@H]1C [XXXVI, (3S)-6-Chloro-4-N-(2-methoxyethoxycarbonyl)-3-methyl-3,4-dihydroquinoxalin-2(1H)-one] | 93 to 94 °C |
| CC(C)=CCN1CC(=O)Nc2cc(S(=O)(=O)Oc3ccccc3)ccc21 [Example XXX, 4-(3-Methyl-2-buten-1-yl)-7-phenoxysulfonyl-3,4-dihydroquinoxalin-2(1H)-one] | 132 °C |
| CC(C)CC1Nc2c(S(=O)(=O)Oc3ccccc3)ccc(N3CCN(C)CC3)c2NC1=O (stereo not shown) (as salt: hydrochloride) [XXXII, 8-(4-Methyl-1-piperazinyl)-3-(2-methylpropyl)-5-phenoxysulfonyl-3,4-dihydroquinoxalin-2(1H)-one] | ≥ 90 °C (dec.) |
| CC(=O)CCN1c2ccccc2NC(=O)C1C (racemic) [XXXIV, (3RS)-3-Methyl-4-N-(3-oxo-1-butyl)-3,4-dihydroquinoxalin-2(1H)-one] | 108 to 109 °C |
| CC1(C)Nc2ccc(Cl)cc2N(C2CC2)C1=O [XIX, 7-Chloro-1-N-(cyclopropyl)-3,3-dimethyl-3,4-dihydroquinoxalin-2(1H)-one] | 132 to 133 °C |
| COc1ccc(OC(=O)N2c3cc(Cl)ccc3NC(=O)[C@@H]2C)cc1 [IX, (3S)-6-Chloro-4-N-(4-methoxyphenoxycarbonyl)-3-methyl-3,4-dihydroquinoxalin-2(1H)-one] | 187 to 190 °C |
| CC(C)=CCN1c2ccccc2NC(=O)C1C (racemic) [XXV, (3RS)-3-Methyl-4-N-(3-methyl-2-buten-1-yl)-3,4-dihydroquinoxalin-2(1H)-one] | 92 to 93 °C |
| COc1cc2c(cc1OC)NC(C)C(=O)N2 (stereo not shown) [Example XVII, 6,7-Dimethoxy-3-methyl-3,4-dihydroquinoxalin-2(1H)-one] | 151 °C |
| O=C1Nc2cc(S(=O)(=O)Oc3ccccc3)ccc2N2C(=O)CCC12 (stereo not shown) [XXVII, 7-Phenoxysulfonyl-3,3a-dihydropyrrolo[1,2-a]quinoxaline-1,4(2H,5H)-dione] | 140 °C (dec.) |
| O=C1CNc2ccc(S(=O)(=O)Oc3ccccc3)cc2N1 [XXIX, 7-Phenoxysulfonyl-3,4-dihydroquinoxalin-2(1H)-one] | 253 to 254 °C |
| C=CC(C)(C)C1C(=O)Nc2ccc(Cl)cc2N1CC=C(C)C (stereo not shown) [Example XVI, 6-Chloro-4-N-(3-methyl-2-buten-1-yl)-3-(1,1-dimethyl-2-propen-1-yl)-3,4-dihydroquinoxalin-2(1H)-one] | 110 to 112 °C |
| O=C1Nc2cc(Cl)ccc2N[C@H]1Cc1ccccc1 [Example II, (3S)-3-Benzyl-7-chloro-3,4-dihydroquinoxalin-2(1H)-one] | 185 °C |
| CC(C)=CCN1CC(=O)Nc2ccc(Cl)cc21 [Example XV, 6-Chloro-4-N-(3-methyl-2-buten-1-yl)-3,4-dihydro-quinoxalin-2(1H)-one] | 150 to 151 °C |
